Results on twelve compounds are retold here after US20100015141A1, “4-PHENOXY-6-ARYL-1H-PYRAZOLO[3,4-D]PYRIMIDINE AND N-ARYL-6-ARYL-1H-PYRAZOLO[3,4-D]PYRIMIDIN-4-AMINE COMPOUNDS, THEIR USE AS MTOR KINASE AND PI3 KINASE INHIBITORS, AND THEIR SYNTHESES” (Wyeth, priority 2008, published 2010).

Where two headings read alike, the source gives them in different places.

One experiment has as its target PI3K-β (Homo sapiens, UniProt P42338). The experiment can be described thus: PI3K fluorescence polarization assay (PI3K-β). Type of experiment: biochemical. Here is the method:
(§1) The reaction buffer was 20 mM HEPES pH7.5, 2 mM MgCl2, 0.05% CHAPS, and 0.01% βME (added fresh). The substrate solution was 40 μM PIP2 (diC8, Echelon, Salt Lake City Utah cat #P-4508, 1 mM in water) and 50 μM ATP in the reaction buffer. Nunc 384-well black polypropylene fluorescent plates were used for PI3K assays. The assay is run by putting 9.5 μl of freshly diluted enzyme in the reaction buffer per well, adding 0.5 μl of diluted drug or DMSO, and mixing. Then 10 μl of the substrate solution is added to each well to start the reaction. A final concentration of 20 μM PIP2 and 25 μM ATP in the reaction was used. Reactions were allowed to proceed for 30-60 minutes at room temperature. After 30-60 minutes, 20 μl of a solution of 10 nM TAMRA detector (Red detector probe-Echelon) and 2.5 uM of GST-murineGRP (1.5 mg/ml in 17% glycerol) was added per well to stop the reaction. The resulting solution was mixed well and allowed to stand for 90-110 minutes before reading plate. Assay Plates were read on Perkin-Elmer Envision plate readers with appropriate filters for Tamra [BODIPY-TMRI(1,3,4,5)P4]. Data obtained were used to calculate enzymatic activity and enzyme inhibition by inhibitor compounds. It is important to keep Red probe solutions dark. This procedure is adapted from Echelon Biosciences Inc procedure for their PI3-Kinase fluorescence polarization activity Assay kit Product number K-1100.

Experiment [1] concerns the target T1, mTOR (Homo sapiens, UniProt P42345). Nature of the experiment: mTOR enzyme assay (DELFIA, His6-S6K phosphorylation). The format is biochemical. As to conditions: 100 μM ATP, 1.25 μM His6-S6K. Details: FLAG.
Another experiment has as its target PI3K-α (Homo sapiens, UniProt P42336). Nature of the experiment: PI3K-alpha fluorescence polarization assay. Type of experiment: biochemical. Conditions: 20 μM PIP2, 25 μM ATP. Summed up:
(§2)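 Buffer: 20 mM HEPES pH7.5, 2 mM MgCl2, 0.05% CHAPS, 0.01% βME. Enzyme with compound was reacted with final 20 μM diC8 PIP2 and 25 μM ATP for 30-60 minutes at room temperature. The stop/detection mix (10 nM TAMRA probe, 2.5 uM GST-murine GRP as added) was read by fluorescence polarization after 90-110 minutes.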

A further experiment deals with PI3K-δ (Homo sapiens, UniProt O00329). The experiment can be described thus: PI3K fluorescence polarization assay (PI3K-δ). The format is biochemical. On the procedure: as §1
For the next experiment, the target named is PI3K-γ (Homo sapiens, UniProt P48736). The experiment can be described thus: PI3K-gamma fluorescence polarization assay. Type of experiment: biochemical. Conditions: 20 μM PIP2, 25 μM ATP. Summed up: as §2
The subject of a further experiment is human tumor xenografts. Conditions: cited from earlier work.
In experiment [2] the test system is acute lymphoblastic leukemia. Conditions: in vivo; cited from earlier work.
For experiment [3], the target named is T1, mTOR. As to conditions: read-out: mTOR IC50; mTOR complexes (PI103) / mTOR enzymes (ZSTK474); cited from earlier work.

Sequence of PI3K-β (P42338 whole entry, species assumed): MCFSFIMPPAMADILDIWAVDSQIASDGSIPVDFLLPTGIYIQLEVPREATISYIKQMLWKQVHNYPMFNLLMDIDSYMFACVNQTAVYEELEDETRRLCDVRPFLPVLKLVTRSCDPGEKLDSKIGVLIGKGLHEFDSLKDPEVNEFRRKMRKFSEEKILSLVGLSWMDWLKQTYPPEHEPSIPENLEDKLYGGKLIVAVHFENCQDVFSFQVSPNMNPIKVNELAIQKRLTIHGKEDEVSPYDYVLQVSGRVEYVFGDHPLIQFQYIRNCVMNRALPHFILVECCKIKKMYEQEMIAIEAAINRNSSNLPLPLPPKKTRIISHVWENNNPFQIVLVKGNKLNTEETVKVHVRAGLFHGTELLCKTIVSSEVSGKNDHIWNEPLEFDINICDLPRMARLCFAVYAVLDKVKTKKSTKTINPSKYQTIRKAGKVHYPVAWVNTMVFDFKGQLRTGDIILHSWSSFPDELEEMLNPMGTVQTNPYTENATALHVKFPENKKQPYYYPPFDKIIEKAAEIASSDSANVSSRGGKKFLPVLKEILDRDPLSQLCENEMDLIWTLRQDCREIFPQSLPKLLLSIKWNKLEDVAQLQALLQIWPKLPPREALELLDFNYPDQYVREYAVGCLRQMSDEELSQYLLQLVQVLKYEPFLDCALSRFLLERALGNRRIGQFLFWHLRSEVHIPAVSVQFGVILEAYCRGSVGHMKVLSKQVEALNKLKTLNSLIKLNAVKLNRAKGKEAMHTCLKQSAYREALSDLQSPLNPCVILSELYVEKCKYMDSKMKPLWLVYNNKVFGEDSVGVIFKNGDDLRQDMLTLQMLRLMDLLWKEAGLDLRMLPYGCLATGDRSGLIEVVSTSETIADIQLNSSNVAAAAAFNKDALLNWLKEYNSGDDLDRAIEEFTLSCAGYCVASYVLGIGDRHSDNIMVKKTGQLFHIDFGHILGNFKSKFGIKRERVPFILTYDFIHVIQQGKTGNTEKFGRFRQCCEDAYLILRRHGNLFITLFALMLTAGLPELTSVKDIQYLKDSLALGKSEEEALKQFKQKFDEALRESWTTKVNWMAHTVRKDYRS
Sequence of PI3K-β (P27986 whole entry partner, species assumed): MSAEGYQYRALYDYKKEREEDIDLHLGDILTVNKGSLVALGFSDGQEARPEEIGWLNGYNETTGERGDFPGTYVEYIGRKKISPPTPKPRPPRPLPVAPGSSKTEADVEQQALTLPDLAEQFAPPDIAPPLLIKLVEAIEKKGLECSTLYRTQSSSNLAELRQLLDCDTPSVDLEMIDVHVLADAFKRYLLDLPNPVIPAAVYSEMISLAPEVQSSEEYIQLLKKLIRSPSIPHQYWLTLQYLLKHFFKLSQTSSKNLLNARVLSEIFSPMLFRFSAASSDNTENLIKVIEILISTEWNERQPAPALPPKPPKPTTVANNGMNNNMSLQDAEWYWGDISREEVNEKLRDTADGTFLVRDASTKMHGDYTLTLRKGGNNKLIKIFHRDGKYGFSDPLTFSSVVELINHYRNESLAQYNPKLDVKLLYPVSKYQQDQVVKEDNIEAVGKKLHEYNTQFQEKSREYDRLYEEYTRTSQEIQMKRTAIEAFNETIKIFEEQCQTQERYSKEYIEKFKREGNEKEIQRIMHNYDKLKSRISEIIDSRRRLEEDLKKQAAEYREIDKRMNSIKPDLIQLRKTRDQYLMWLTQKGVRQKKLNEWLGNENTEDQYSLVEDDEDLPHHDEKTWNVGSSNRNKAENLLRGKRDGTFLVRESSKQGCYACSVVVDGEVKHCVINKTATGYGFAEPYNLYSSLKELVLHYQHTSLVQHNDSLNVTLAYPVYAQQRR
Sequence of PI3K-δ (O00329 whole entry, species assumed): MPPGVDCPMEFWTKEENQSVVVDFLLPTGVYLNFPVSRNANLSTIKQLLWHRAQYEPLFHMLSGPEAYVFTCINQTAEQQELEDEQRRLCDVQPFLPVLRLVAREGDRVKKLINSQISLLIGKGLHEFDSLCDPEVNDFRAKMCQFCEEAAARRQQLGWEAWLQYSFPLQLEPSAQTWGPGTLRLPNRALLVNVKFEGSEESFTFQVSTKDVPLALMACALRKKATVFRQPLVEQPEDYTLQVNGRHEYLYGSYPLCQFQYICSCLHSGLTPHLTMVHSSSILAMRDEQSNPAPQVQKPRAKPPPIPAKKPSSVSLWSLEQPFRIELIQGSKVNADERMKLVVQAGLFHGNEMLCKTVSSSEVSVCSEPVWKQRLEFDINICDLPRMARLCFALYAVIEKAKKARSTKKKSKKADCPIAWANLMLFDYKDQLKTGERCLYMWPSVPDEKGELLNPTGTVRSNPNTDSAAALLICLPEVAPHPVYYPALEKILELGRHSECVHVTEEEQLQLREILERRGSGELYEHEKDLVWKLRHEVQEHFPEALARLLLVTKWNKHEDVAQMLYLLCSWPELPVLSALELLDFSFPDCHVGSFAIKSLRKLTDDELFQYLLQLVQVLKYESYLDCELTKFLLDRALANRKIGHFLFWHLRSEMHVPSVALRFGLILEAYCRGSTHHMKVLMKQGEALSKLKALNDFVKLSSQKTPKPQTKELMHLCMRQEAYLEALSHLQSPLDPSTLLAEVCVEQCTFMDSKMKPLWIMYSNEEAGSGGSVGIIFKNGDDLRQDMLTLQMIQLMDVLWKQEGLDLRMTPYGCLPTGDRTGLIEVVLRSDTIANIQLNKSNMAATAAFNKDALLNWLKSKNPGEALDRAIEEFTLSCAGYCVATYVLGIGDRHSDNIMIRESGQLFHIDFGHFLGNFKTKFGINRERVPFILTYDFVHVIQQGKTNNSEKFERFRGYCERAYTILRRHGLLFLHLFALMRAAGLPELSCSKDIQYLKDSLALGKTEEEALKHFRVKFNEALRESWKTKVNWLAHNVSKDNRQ
Sequence of PI3K-δ (P27986 whole entry partner, species assumed): as the sequence (P27986 whole entry partner, species assumed) above
Sequence of PI3K-γ (P48736 whole entry, species assumed): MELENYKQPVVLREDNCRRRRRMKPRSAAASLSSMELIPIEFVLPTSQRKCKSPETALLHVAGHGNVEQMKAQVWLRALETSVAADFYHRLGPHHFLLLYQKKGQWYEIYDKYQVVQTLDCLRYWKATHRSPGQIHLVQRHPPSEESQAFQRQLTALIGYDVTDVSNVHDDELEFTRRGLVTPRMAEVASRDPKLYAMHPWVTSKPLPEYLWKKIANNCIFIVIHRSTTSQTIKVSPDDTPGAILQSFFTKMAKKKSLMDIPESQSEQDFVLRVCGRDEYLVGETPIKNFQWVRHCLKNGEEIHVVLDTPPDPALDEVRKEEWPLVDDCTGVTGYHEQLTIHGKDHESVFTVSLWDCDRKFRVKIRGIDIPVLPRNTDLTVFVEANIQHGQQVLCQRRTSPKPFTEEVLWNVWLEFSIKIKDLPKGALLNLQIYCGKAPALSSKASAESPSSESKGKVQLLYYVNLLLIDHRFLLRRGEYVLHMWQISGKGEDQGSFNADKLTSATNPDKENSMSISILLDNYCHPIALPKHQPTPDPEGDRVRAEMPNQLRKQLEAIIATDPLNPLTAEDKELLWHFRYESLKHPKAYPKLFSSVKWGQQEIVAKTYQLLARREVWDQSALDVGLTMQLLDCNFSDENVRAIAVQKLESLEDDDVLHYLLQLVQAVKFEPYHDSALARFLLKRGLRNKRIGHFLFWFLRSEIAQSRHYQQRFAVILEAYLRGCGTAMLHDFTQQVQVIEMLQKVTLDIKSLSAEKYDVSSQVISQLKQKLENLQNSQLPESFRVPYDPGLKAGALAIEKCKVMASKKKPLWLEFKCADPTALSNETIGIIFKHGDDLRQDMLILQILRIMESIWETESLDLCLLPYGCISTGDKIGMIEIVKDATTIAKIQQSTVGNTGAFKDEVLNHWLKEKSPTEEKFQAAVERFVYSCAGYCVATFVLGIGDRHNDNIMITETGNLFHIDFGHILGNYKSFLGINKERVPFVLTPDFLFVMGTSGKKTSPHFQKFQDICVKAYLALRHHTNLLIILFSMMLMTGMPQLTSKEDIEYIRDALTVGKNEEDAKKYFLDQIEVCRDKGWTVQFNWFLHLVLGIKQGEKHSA
Sequence of PI3K-α (P42336 whole entry, species assumed): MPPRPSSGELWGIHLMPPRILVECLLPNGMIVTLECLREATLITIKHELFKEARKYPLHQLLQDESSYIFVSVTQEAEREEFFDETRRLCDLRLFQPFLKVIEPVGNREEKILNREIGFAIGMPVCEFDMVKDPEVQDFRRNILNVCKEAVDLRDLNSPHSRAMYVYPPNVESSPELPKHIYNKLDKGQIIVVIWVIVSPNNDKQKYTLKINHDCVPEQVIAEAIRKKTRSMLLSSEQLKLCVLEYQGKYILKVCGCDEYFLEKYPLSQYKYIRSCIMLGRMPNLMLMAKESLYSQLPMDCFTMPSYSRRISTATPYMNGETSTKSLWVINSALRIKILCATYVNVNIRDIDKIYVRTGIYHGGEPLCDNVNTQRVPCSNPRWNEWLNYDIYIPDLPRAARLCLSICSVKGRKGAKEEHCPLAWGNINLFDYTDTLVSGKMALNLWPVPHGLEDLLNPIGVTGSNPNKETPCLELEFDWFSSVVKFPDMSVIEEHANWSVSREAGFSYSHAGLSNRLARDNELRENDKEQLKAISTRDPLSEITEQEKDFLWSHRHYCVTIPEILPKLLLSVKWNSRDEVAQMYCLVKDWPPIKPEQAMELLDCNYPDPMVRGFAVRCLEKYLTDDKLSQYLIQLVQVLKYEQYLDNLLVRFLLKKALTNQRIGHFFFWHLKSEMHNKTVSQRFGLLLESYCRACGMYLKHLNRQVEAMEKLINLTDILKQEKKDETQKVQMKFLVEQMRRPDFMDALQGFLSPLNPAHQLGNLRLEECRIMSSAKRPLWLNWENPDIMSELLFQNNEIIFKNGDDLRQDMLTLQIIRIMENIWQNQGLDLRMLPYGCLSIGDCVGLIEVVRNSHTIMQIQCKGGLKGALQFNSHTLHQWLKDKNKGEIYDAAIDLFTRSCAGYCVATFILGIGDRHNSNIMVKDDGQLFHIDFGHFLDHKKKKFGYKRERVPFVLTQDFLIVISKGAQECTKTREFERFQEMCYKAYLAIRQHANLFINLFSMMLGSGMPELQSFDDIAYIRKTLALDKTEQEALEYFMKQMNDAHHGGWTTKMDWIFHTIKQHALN
Sequence of PI3K-α (P27986 whole entry partner, species assumed): as the sequence (P27986 whole entry partner, species assumed) above

A word on the IC50: it is the midpoint of a concentration-inhibition curve. On to `COc1ccc(Oc2nc(-c3ccc(OC)c(OC)c3)nc3c2cnn3C)cc1OC` [Example 46, 4-(3,4-dimethoxyphenoxy)-6-(3,4-dimethoxyphenyl)-1-methyl-1H-pyrazolo[3,4-d]pyrimidine], for which the IC50 was 428 nM against PI3K-β; greater than 20000 nM against mTOR [1]; 230 nM against PI3K-α; 94 nM at PI3K-δ; 203 nM at PI3K-γ.
Consider `COc1cccc(-c2nc(Oc3ccc(NC(C)=O)cc3)c3cnn(C)c3n2)c1` [Example 49, N-(4-{[6-(3-methoxyphenyl)-1-methyl-1H-pyrazolo[3,4-d]pyrimidin-4-yl]oxy}phenyl)acetamide], for which the IC50 at PI3K-β was 1040 nM; against mTOR [1], greater than 20000 nM; at PI3K-α it was 258 nM; on PI3K-δ it was 134 nM; against PI3K-γ, 514 nM.
Turning to `CC(=O)Nc1ccc(Oc2nc(-c3cccc(O)c3)nc3c2cnn3C)cc1` [Example 50, N-(4-{[6-(3-hydroxyphenyl)-1-methyl-1H-pyrazolo[3,4-d]pyrimidin-4-yl]oxy}phenyl)acetamide], the IC50 at PI3K-β was found to be 213 nM; at mTOR [1] it was 2100 nM; against PI3K-α it was 113 nM; against PI3K-δ, 65 nM; against PI3K-γ, 114 nM.
The matching figures for `Cc1noc(C)c1-c1nc(Nc2ccc(C(N)=O)cc2)c2cnn(C)c2n1` [Example 63, 4-{[6-(3,5-dimethylisoxazol-4-yl)-1-methyl-1H-pyrazolo[3,4-d]pyrimidin-4-yl]amino}benzamide]: 2150 nM, 2800 nM, 75 nM, 439 nM and 416 nM.
The matching figures for `Cn1ncc2c(Nc3ccc(C(N)=O)cc3)nc(-c3cccc(Cl)c3)nc21` [Example 64, 4-{[6-(3-chlorophenyl)-1-methyl-1H-pyrazolo[3,4-d]pyrimidin-4-yl]amino}benzamide]: 1620 nM, 300 nM, 40 nM, 170 nM and 331 nM.
Regarding `CN(C)C(=O)c1ccc(Nc2nc(Nc3ccc(NC(=O)Nc4cccnc4)cc3)nc3c2cnn3C)cc1` [Example 93, N,N-Dimethyl-4-{[1-methyl-6-({4-[(pyridin-3-ylcarbamoyl)amino]phenyl}amino)-1H-pyrazolo[3,4-d]pyrimidin-4-yl]amino}benzamide], the IC50 against mTOR [1] is 12 nM; on PI3K-α, 2.1 nM; against PI3K-γ, 75 nM.
The matching figures for `Cn1ncc2c(Nc3ccc4c(c3)CNC4=O)nc(Nc3ccc(NC(=O)Nc4cccnc4)cc3)nc21` [Example 94, 1-[4-({1-Methyl-4-[(1-oxo-2,3-dihydro-1H-isoindol-5-yl)amino]-1H-pyrazolo[3,4-d]pyrimidin-6-yl}amino)phenyl]-3-pyridin-3-ylurea]: 20 nM, 1.6 nM and 11 nM.
Consider `CN1Cc2cc(Nc3nc(Nc4ccc(NC(=O)Nc5cccnc5)cc4)nc4c3cnn4C)ccc2C1=O` [Example 95, 1-[4-({1-Methyl-4-[(2-methyl-1-oxo-2,3-dihydro-1H-isoindol-5-yl)amino]-1H-pyrazolo[3,4-d]pyrimidin-6-yl}amino)phenyl]-3-pyridin-3-ylurea], for which the IC50 against mTOR [1] came to 68 nM; on PI3K-α it was 6 nM; at PI3K-γ it was 148 nM.
Turning to `Cn1c(=O)n(-c2ccc(C(C)(C)C#N)cc2)c2c3cc(-c4cnc5ccccc5c4)ccc3ncc21` [NVP-BEZ-235, 2-methyl-2-(4-(3-methyl-2-oxo-8-(quinolin-3-yl)-2,3-dihydro-1H-imidazo[4,5-c]quinolin-1-yl)phenyl)propanenitrile], in the experiment with human tumor xenografts (prostrate (PC-3) and glioblastoma (U-87)), the “activity in human tumor xenograft models” value was “demonstrated activity”.
For the compound `Oc1cccc(-c2nc(N3CCOCC3)c3oc4ncccc4c3n2)c1` [PI103, 3-(4-(4-morpholinyl)pyrido[3′,2′:4,5]furo[3,2-d]pyrimidin-2-yl)phenol], the “activity in human tumor xenograft models” value in the experiment with human tumor xenografts (I.P. dosing in mice, U87MG, PC3, MDA-MB-468, MDA-MB-435, HCT 116, SKOV3, IGROV-1) is on record as “demonstrated activity”.
For the compound `CO[C@H]1C[C@@H]2CC[C@@H](C)[C@@](O)(O2)C(=O)C(=O)N2CCCC[C@H]2C(=O)O[C@H]([C@H](C)C[C@@H]2CC[C@@H](OC(=O)C(C)(CO)CO)[C@H](OC)C2)CC(=O)[C@H](C)/C=C(\C)[C@@H](O)[C@@H](OC)C(=O)[C@H](C)C[C@H](C)/C=C/C=C/C=C/1C` [Torisel], in experiment [2], the “activity in NOS/SCID xenograft mouse model of acute lymphoblastic leukemia” value is “active”.
Turning to `FC(F)c1nc2ccccc2n1-c1nc(N2CCOCC2)nc(N2CCOCC2)n1` [ZSTK474, 2-(2-difluoromethylbenzoimidazol-1-yl)-4,6-dimorpholino-1,3,5-triazine], the “tumor growth in mouse human xenograft cancer models” value in the experiment on human tumor xenografts (chronic oral administration, 400 mg/kg, A549, PC-3, WiDr) is “completely inhibited growth”. Further, the IC50 on mTOR [3] is greater than 10000 nM.
